A word on the plant injury: it is the degree to which the test organism was suppressed or injured, in per cent.

The source of these data is patent US12495798B2, “Nicotinamide compound and herbicidal composition comprising compound” (KOREA RESEARCH INSTITUTE OF CHEMICAL TECHNOLOGY, priority 2019, dated 2025).

Common to all, as to type: in vivo
The test system of one series is black nightshade. In words: Herbicidal activity test against upland field weeds (foliar treatment test). Particulars: 50 g ai/ha, scale 0-100. The procedure, abridged: (§1)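 Greenhouse-grown plants (30±5 °C, 14/10 h light/dark) foliar hand-sprayed with compound in 50% acetone, 0.1% Tween-20 at 50 or 75 g a.i./ha. Control visually scored 0 (none) to 100 (complete) versus untreated after 14 days, or 21 days if needed.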

In the next series the test system is bindweed. The series is described as above. Particulars: 50 g ai/ha, scale 0-100. In a few lines:
as §1

In the next series the test system is indian jointvetch. Described as above. Particulars: 50 g ai/ha, scale 0-100. In a few lines: as §1
The test system of a further series is cocklebur. Described as above. The settings on record: 50 g ai/ha, scale 0-100. In a few lines: as §1
The next series has as its system fall panicum. The series is described as above. The settings on record: 50 g ai/ha, scale 0-100. The procedure, abridged:
as §1

The next series relates to crabgrass. Described as above. Particulars: 50 g ai/ha, scale 0-100. The procedure, abridged:
as §1

For another series, the system named is velvetleaf. Described as above. Particulars: 50 g ai/ha. The procedure, abridged:
as §1

The next series deals with quack grass. The description is as above. On the set-up: key to Foliar treatment herbicidal activity, quack grass: 0 (no control); 100 (complete control). The settings on record: 50 g ai/ha, scale 0-100. The procedure, abridged: as §1
A further series deals with sorghum. The series is described as above. Particulars: 50 g ai/ha, scale 0-100. In a few lines: as §1
For another series, the system named is barnyard grass. The series is described as above. The settings on record: 50 g ai/ha, scale 0-100. In a few lines: as §1
The next series relates to wheat. In words: Phytotoxicity test for upland field crops (foliar treatment test). More on the design: key: 0 (no harm); 9 (complete withered). In a few lines:
(§2)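 Crops grown in greenhouse pots (30±5 °C, 14/10 h light) were foliar-sprayed with compound at 19–300 g a.i./ha in 33% acetone/0.1% Tween-20. Phytotoxicity scored 0 (no harm) to 9 (complete withering) versus untreated control at 7 and 14 days, 21 if needed.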

The test system of a further series is corn. The series is described as above. More on the design: key: 0 (no harm); 9 (complete withered). In a few lines:
as §2

Where [1] appears, read: 50 g ai/ha, Wheat (7 days after treatment).
Where [2] appears, read: 50 g ai/ha, Wheat (14 days after treatment).
Where [3] appears, read: 100 g ai/ha, Wheat (7 days after treatment).
Where [4] appears, read: 100 g ai/ha, Wheat (14 days after treatment).
The mark [5] stands for this setting: 50 g ai/ha, Corn (7 days after treatment).
Where [6] appears, read: 50 g ai/ha, Corn (14 days after treatment).
The mark [7] stands for this setting: 100 g ai/ha, Corn (7 days after treatment).
Setting [8] is: 100 g ai/ha, Corn (14 days after treatment).

As to `C=CCn1nnnc1NC(=O)c1ccc(C(F)(F)F)nc1COCc1nc(C(F)(F)F)n(C)n1` [Compound No. 2-121, N-(1-allyl-1H-tetrazol-5-yl)-2-(((1-methyl-5-(trifluoromethyl)-1H-1,2,4-triazol-3-yl)methoxy)methyl)-6-(trifluoromethyl)nicotinamide], the pest or weed control at 50 g/ha in the series with black nightshade (Solanum nigrum) was found to be 95%; in the series with bindweed, 40%; in the series on indian jointvetch, 30%; with cocklebur (Xanthium strumarium) it was 70%; in the series with fall panicum (Panicum dichotomiflorum), 50%; in the series with crabgrass (Digitaria sanguinalis) it was 30%. Besides, the pest or weed control at 50 g/ha with velvetleaf (Abutilon theophrasti, scale 0-100, read-out: Foliar treatment herbicidal activity, velvet leaf) was found to be 40%; in the series on barnyard grass (Echinochloa crus-galli), 20%. For the same compound, the “Foliar treatment herbicidal activity, quack grass” value in the series with quack grass was 0. Besides, in the series on sorghum (Sorghum), the plant injury at 50 g/ha worked out at 10%. The “Foliar treatment phytotoxicity, Wheat” value with wheat (setting [1]), in the series with wheat (setting [2]), in the series on wheat (setting [3]) and in the series with wheat (setting [4]) was 0 each time. The “Foliar treatment phytotoxicity, Corn” value in the series with corn (setting [5]), with corn (setting [6]), with corn (setting [7]) and in the series with corn (setting [8]) was 0 each time.
As for `CCCn1nnnc1NC(=O)c1ccc(C(F)(F)F)nc1COCc1nc(C(F)F)n(C)n1` [Compound No. 2-124], the “Foliar treatment herbicidal activity, black nightshade” value in the series with black nightshade was 95. In addition, the “Foliar treatment herbicidal activity, Bindweed” value in the series on bindweed was determined as 70. Further, the “Foliar treatment herbicidal activity, Indian jointvetch” value in the series with indian jointvetch was 60. For the same compound, the “Foliar treatment herbicidal activity, Cocklebur” value in the series on cocklebur came out at 80. The “Foliar treatment herbicidal activity, Fall panicum” value in the series on fall panicum is 90. Moreover, in the series on crabgrass, the “Foliar treatment herbicidal activity, Crabgrass” value was found to be 95. For the same compound, the “Foliar treatment herbicidal activity, velvet leaf” value in the series on velvetleaf (scale 0-100) is 60. Moreover, in the series with quack grass, the “Foliar treatment herbicidal activity, quack grass” value was 20. The “Foliar treatment herbicidal activity, Sorghum” value in the series with sorghum came out at 40. Moreover, the “Foliar treatment herbicidal activity, barnyard grass” value with barnyard grass was 90. The “Foliar treatment phytotoxicity, Wheat” value in the series with wheat (setting [1]) stood at 0; in the series with wheat (setting [2]), 1; with wheat (setting [3]), 1; in the series with wheat (setting [4]), 1. For the same compound, the “Foliar treatment phytotoxicity, Corn” value with corn (setting [5]) came to 2; in the series on corn (setting [6]) it was 1; with corn (setting [7]) it was 3; in the series with corn (setting [8]), 2.
